According to patent US20240307416A1, “FILM-FORMING COMPOSITIONS COMPRISING SALICYLIC ACID AND METHODS OF USE” (3M INNOVATIVE PROPERTIES COMPANY, priority 2021, published 2024):

Experiment: Dissolution of salicylic acid in film-forming gel components
Format: physicochemical

- Solubility of salicylic acid in the silicate tackifying resin and/or the volatile solvent: does not appear to be readily soluble
SMILES: O=C(O)c1ccccc1O [salicylic acid]
- Dissolution of salicylic acid in the formulation of U.S. Pat. No. 10,603,405 (SPOx added at the end of the manufacture): did not appear dissolve and remained a solid particulate
